{"source": "the supplement of paper PMC10307832", "assay_in_all_cases": "relative viability (nuclei count vs DMSO), 5 days (fraction); higher = more cells survive", "key": {"[1]": {"compound": "CN1C=C(C2=CC=CC=C21)/C=C\\3/C4=C(C=CC=N4)NC3=O + C[C@]1(O)C[C@@H](c2nc(-c3ccc4ccc(-c5ccccc5)nc4c3)c3c(N)nccn32)C1 [Linsitinib] (partner 1 µM)", "in_short": "(§1)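 Relative viability equals treated-well nuclei counts divided by vehicle-well nuclei counts. Counts came from 4× images of lung cancer cell lines grown in 1536-well plates for 5 days after pin-tool dosing on the day after seeding. Dosing used one drug alone or a fixed anchor-drug dose plus five library-drug doses (not always all listed) in √10 steps, and values are medians of duplicate plates.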"}, "[2]": {"compound": "CN1C=C(C2=CC=CC=C21)/C=C\\3/C4=C(C=CC=N4)NC3=O + CCNC(=O)c1noc(-c2cc(C(C)C)c(O)cc2O)c1-c1ccc(CN2CCOCC2)cc1 [Luminespib] (partner 0.01 µM)", "in_short": "as §1"}, "[3]": {"compound": "CC(=O)Nc1cccc(-n2c(=O)n(C3CC3)c(=O)c3c(Nc4ccc(I)cc4F)n(C)c(=O)c(C)c32)c1 [Trametinib] + N=C(N)NC(=N)NCCc1ccccc1 [Phenformin] (partner 250 µM)", "in_short": "as §1"}, "[4]": {"compound": "CN1C=C(C2=CC=CC=C21)/C=C\\3/C4=C(C=CC=N4)NC3=O + Nc1nc2[nH]cc(CCc3ccc(C(=O)N[C@@H](CCC(=O)O)C(=O)O)cc3)c2c(=O)[nH]1 [Pemetrexed] (partner 0.2 µM)", "in_short": "as §1"}}}
{"cell line": "UMC-11", "values": [{"measurement": "relative viability", "setting": "[1]; first compound 0.02 µM", "value": 0.68}, {"measurement": "relative viability", "setting": "[1]; first compound 0.06325 µM", "value": 1}, {"measurement": "relative viability", "setting": "[1]; first compound 0.2 µM", "value": 1.07}, {"measurement": "relative viability", "setting": "[1]; first compound 0.6325 µM", "value": 1.1}, {"measurement": "relative viability", "setting": "[1]; first compound 2 µM", "value": 1.18}, {"measurement": "relative viability", "setting": "[2]; first compound 0.02 µM", "value": 0.764}, {"measurement": "relative viability", "setting": "[2]; first compound 0.06325 µM", "value": 0.943}, {"measurement": "relative viability", "setting": "[2]; first compound 0.2 µM", "value": 1}, {"measurement": "relative viability", "setting": "[2]; first compound 0.6325 µM", "value": 1.25}, {"measurement": "relative viability", "setting": "[2]; first compound 2 µM", "value": 1.18}, {"measurement": "relative viability", "setting": "[3]; first compound 0.0025 µM", "value": 0.366}, {"measurement": "relative viability", "setting": "[3]; first compound 0.007906 µM", "value": 0.328}, {"measurement": "relative viability", "setting": "[3]; first compound 0.025 µM", "value": 0.28}, {"measurement": "relative viability", "setting": "[3]; first compound 0.07906 µM", "value": 0.309}, {"measurement": "relative viability", "setting": "[3]; first compound 0.25 µM", "value": 0.291}, {"measurement": "relative viability", "setting": "[4]; first compound 0.02 µM", "value": 0.655}, {"measurement": "relative viability", "setting": "[4]; first compound 0.06325 µM", "value": 0.744}, {"measurement": "relative viability", "setting": "[4]; first compound 0.2 µM", "value": 0.801}, {"measurement": "relative viability", "setting": "[4]; first compound 0.6325 µM", "value": 0.857}, {"measurement": "relative viability", "setting": "[4]; first compound 2 µM", "value": 0.936}]}
